Data as given in the CheMixHub viscosity set.

Assay: xn = mol fraction of the nth substance listed
Conditions: 100 kPa

NC=O + OCCCO
viscosity [mPa·s]
Conditions | x1 = 0.1034 | x1 = 0.2038 | x1 = 0.3016 | x1 = 0.4021 | x1 = 0.5014 | x1 = 0.5969 | x1 = 0.7026 | x1 = 0.7996 | x1 = 0.8975
293.15 K | 38.53 | 28.29 | 19.85 | 14.09 | 10.47 | 8.232 | 6.233 | 5.198 | 4.415
298.15 K | 29.44 | 21.08 | 14.33 | 9.719 | 7.266 | 6.123 | 5.094 | 4.135 | 3.811
303.15 K | 23.41 | 16.76 | 11.34 | 7.417 | 5.776 | 4.679 | 4.163 | 3.336 | 3.213

CCCCCCCCCCC + CCCCCCCO
viscosity [mPa·s]
Conditions | x1 = 0.0999 | x1 = 0.1998 | x1 = 0.3007 | x1 = 0.399 | x1 = 0.5004 | x1 = 0.5988 | x1 = 0.7002 | x1 = 0.8004 | x1 = 0.8983
293.15 K | 5.317 | 4.102 | 3.124 | 2.518 | 2.05 | 1.798 | 1.547 | 1.383 | 1.239
298.15 K | 4.517 | 3.516 | 2.713 | 2.219 | 1.831 | 1.626 | 1.407 | 1.263 | 1.137
303.15 K | 3.86 | 3.037 | 2.378 | 1.975 | 1.654 | 1.47 | 1.284 | 1.158 | 1.048
308.15 K | 3.32 | 2.641 | 2.202 | 1.816 | 1.537 | 1.342 | 1.176 | 1.063 | 0.968
313.15 K | 2.876 | 2.315 | 1.956 | 1.633 | 1.369 | 1.229 | 1.078 | 0.981 | 0.896
318.15 K | 2.509 | 2.089 | 1.751 | 1.477 | 1.247 | 1.128 | 0.994 | 0.908 | 0.833
323.15 K | 2.251 | 1.86 | 1.575 | 1.34 | 1.14 | 1.04 | 0.918 | 0.843 | 0.777
